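Protocol summary: plate cells (96-well), add compound at 5 concentrations, incubate 48 h, interpolate endpoints linearly. Here, GI50 denotes the concentration required for 50% inhibition of growth.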 Activity calls are given as the source filed them. No stated cut-off is given here; in the data, active = GI50 up to about 1.1 µM and inactive = higher.
What was measured:
Test in all cases: DTP human tumour cell line panel, 48 h
[1] = tested on: A549
[2] = tested on: ACHN
[3] = tested on: EKVX
[4] = tested on: IGROV-1
[5] = tested on: KM12
[6] = tested on: M14
[7] = tested on: NCI-H23
[8] = tested on: NCI-H460
[9] = tested on: OVCAR-3
[10] = tested on: OVCAR-5
[11] = tested on: RXF 393
[12] = tested on: SK-MEL-2
[13] = tested on: SNB-19
[14] = tested on: SNB-75
[15] = tested on: SW-620
[16] = tested on: UACC-257
[17] = tested on: A498

Measured: GI50

COc1ccc(C(O)C(c2ccc(OCc3ccccc3)cc2)c2ccc(OCc3ccccc3)cc2)cc1 (centres undefined)
inactive: [1] > 100 µM | [2] > 100 µM | [3] > 100 µM | [4] > 100 µM | [5] > 100 µM | [6] > 100 µM | [7] > 100 µM | [8] > 100 µM | [9] > 100 µM | [10] > 100 µM | [11] > 100 µM | [12] > 100 µM | [13] > 100 µM | [14] > 100 µM | [15] > 100 µM

CCC(C)CN1C(=O)NC(C)(Cc2ccccc2)C1=O (centres undefined)
inactive: [1] > 100 µM | [2] > 100 µM | [3] > 100 µM | [5] > 100 µM | [6] > 100 µM | [7] > 100 µM | [8] > 100 µM | [10] > 100 µM | [11] > 100 µM | [12] > 100 µM | [13] > 100 µM | [14] > 100 µM | [15] > 100 µM | [16] > 100 µM

Oc1ncnc2c1nnn2CCCn1nnc2c(O)ncnc21
inactive: [17] > 100 µM | [1] > 100 µM | [2] > 100 µM | [3] > 100 µM | [4] > 100 µM | [5] > 100 µM | [6] > 100 µM | [7] > 100 µM | [8] > 100 µM | [9] > 100 µM | [10] > 100 µM | [11] > 100 µM | [12] > 100 µM | [13] > 100 µM | [15] > 100 µM | [16] > 100 µM

O=C(CCCCCCCCCCc1ccccc1)C1=C(O)CCCC1=O
inactive: [1] 18.4 µM | [2] 28.1 µM | [3] 41.3 µM | [4] 35.4 µM | [5] 30.9 µM | [6] 41.2 µM | [7] 20.2 µM | [8] 18.9 µM | [9] 32.8 µM | [10] 33.3 µM | [11] 25.1 µM | [12] 23 µM | [13] 46.2 µM | [14] 32.6 µM | [15] 37.8 µM | [16] 34 µM

Cc1cc(-c2ccccc2)nc(Nc2cc3ccccc3[nH]2)n1
inactive: [17] > 100 µM | [1] > 100 µM | [2] > 100 µM | [3] 89.3 µM | [4] > 100 µM | [5] > 100 µM | [6] > 100 µM | [7] > 100 µM | [8] > 100 µM | [9] > 100 µM | [10] > 100 µM | [12] > 100 µM | [13] > 100 µM | [15] > 100 µM | [16] > 100 µM

Cc1cccc(C(C)(C)C)c1NC(=O)CC1C(=O)Nc2ccccc2[S+]1[O-] (centres undefined)
inactive: [1] 37 µM | [2] 31.4 µM | [5] 73.6 µM | [6] 43.6 µM | [7] 26.4 µM | [8] 54.1 µM | [9] 49.7 µM | [10] > 100 µM | [12] 49.3 µM | [13] 57.1 µM | [14] 54.2 µM | [15] 36.7 µM | [16] 61.9 µM

[N-]=[N+]=Nc1ccccc1-[n+]1noc([O-])c1Br
inactive: [1] > 100 µM | [2] > 100 µM | [3] > 100 µM | [4] > 100 µM | [5] > 100 µM | [6] > 100 µM | [7] > 100 µM | [8] > 100 µM | [9] > 100 µM | [11] > 100 µM | [12] > 100 µM | [13] > 100 µM | [14] > 100 µM | [15] > 100 µM | [16] > 100 µM

Source: ChEMBL document CHEMBL1201862, “PubChem BioAssay data set” (2004)
